± gives the expanded uncertainty stated by the source.
Test: mn = molality of the nth substance listed, in mol/kg
Conditions: 101 kPa, Liquid; for electrical conductivity: METLER TOLEDO SevenEasyTM conductivity meter

CCCC[P+](CC)(CCCC)CCCC.[Br-] [ethyltributylphosphonium bromide] + O
Conditions	electrical conductivity, 298.15 K [S/m]	electrical conductivity, 303.15 K [S/m]	electrical conductivity, 308.15 K [S/m]	mass density, 298.15 K [kg/m3]	mass density, 303.15 K [kg/m3]	mass density, 308.15 K [kg/m3]	viscosity, 298.15 K [mPa·s]	viscosity, 303.15 K [mPa·s]	viscosity, 308.15 K [mPa·s]
m1 = 0.5002	1.77 ± 0.02	1.83 ± 0.02	1.89 ± 0.02	1010.54 ± 0.17	1008.66 ± 0.17	1006.6 ± 0.17	1.404 ± 0.16	1.225 ± 0.16	1.084 ± 0.16
m1 = 0.7497	2.04 ± 0.02	2.14 ± 0.02	2.21 ± 0.02	1016.07 ± 0.18	1013.98 ± 0.18	1011.69 ± 0.18	1.801 ± 0.16	1.589 ± 0.16	1.426 ± 0.16
m1 = 1	2.21 ± 0.02	2.33 ± 0.02	2.41 ± 0.02	1021.34 ± 0.19	1018.99 ± 0.19	1016.49 ± 0.19	2.006 ± 0.17	1.742 ± 0.16	1.524 ± 0.16
m1 = 1.995	2.35 ± 0.02	2.49 ± 0.02	2.63 ± 0.02	1038.07 ± 0.23	1034.94 ± 0.23	1031.74 ± 0.23	3.177 ± 0.17	2.633 ± 0.17	2.19 ± 0.17
m1 = 3.001	2.2 ± 0.02	2.36 ± 0.02	2.55 ± 0.02	1048.55 ± 0.26	1045.08 ± 0.26	1041.59 ± 0.25	4.806 ± 0.19	3.978 ± 0.18	3.331 ± 0.17
m1 = 4	2.03 ± 0.02	2.21 ± 0.02	2.42 ± 0.02	1055.26 ± 0.29	1051.66 ± 0.28	1048.01 ± 0.28	6.391 ± 0.2	5.291 ± 0.19	4.447 ± 0.19
m1 = 4.997	1.87 ± 0.02	2.05 ± 0.02	2.25 ± 0.02	1060.4 ± 0.31	1056.71 ± 0.31	1053 ± 0.3	7.976 ± 0.22	6.54 ± 0.21	5.441 ± 0.2
m1 = 5.998	1.72 ± 0.02	1.9 ± 0.02	2.11 ± 0.02	1064.15 ± 0.33	1060.43 ± 0.32	1056.66 ± 0.32	9.681 ± 0.27	7.852 ± 0.22	6.459 ± 0.21
m1 = 6.501	1.65 ± 0.02	1.85 ± 0.02	2.06 ± 0.02	1065.49 ± 0.34	1062.17 ± 0.33	1058.22 ± 0.33	10.62 ± 0.29	8.579 ± 0.24	7.005 ± 0.21
m1 = 6.984	1.58 ± 0.02	1.78 ± 0.02	1.98 ± 0.02	1066.91 ± 0.34	1063.18 ± 0.34	1059.41 ± 0.33	11.58 ± 0.32	9.33 ± 0.26	7.561 ± 0.22
m1 = 8.001	–	–	–	1069.18 ± 0.36	1065.46 ± 0.35	1061.69 ± 0.34	–	–	–
m1 = 8.994	–	–	–	1070.97 ± 0.37	1067.25 ± 0.36	1063.49 ± 0.35	–	–	–

CCCC[P+](CCCC)(CCCC)CCCC.[Br-] [tetrabutylphosphonium bromide] + O
Conditions	electrical conductivity, 298.15 K [S/m]	electrical conductivity, 303.15 K [S/m]	electrical conductivity, 308.15 K [S/m]	mass density, 298.15 K [kg/m3]	mass density, 303.15 K [kg/m3]	mass density, 308.15 K [kg/m3]	viscosity, 298.15 K [mPa·s]	viscosity, 303.15 K [mPa·s]	viscosity, 308.15 K [mPa·s]
m1 = 0.4996	1.61 ± 0.02	1.65 ± 0.02	1.72 ± 0.02	1008.5 ± 0.17	1006.58 ± 0.17	1004.44 ± 0.17	1.483 ± 0.16	1.282 ± 0.16	1.142 ± 0.16
m1 = 0.7513	1.81 ± 0.02	1.89 ± 0.02	1.99 ± 0.02	1013.67 ± 0.18	1011.4 ± 0.18	1008.98 ± 0.17	1.871 ± 0.16	1.677 ± 0.16	1.469 ± 0.16
m1 = 0.9998	1.93 ± 0.02	2.03 ± 0.02	2.15 ± 0.02	1017.95 ± 0.19	1015.41 ± 0.19	1012.75 ± 0.18	2.246 ± 0.17	1.915 ± 0.16	1.66 ± 0.16
m1 = 1.999	1.97 ± 0.02	2.08 ± 0.02	2.251 ± 0.02	1030.09 ± 0.22	1026.84 ± 0.22	1023.52 ± 0.22	3.875 ± 0.18	3.1 ± 0.17	2.61 ± 0.17
m1 = 2.999	1.84 ± 0.02	1.95 ± 0.02	2.13 ± 0.02	1037.03 ± 0.25	1033.51 ± 0.24	1029.96 ± 0.24	5.641 ± 0.2	4.589 ± 0.19	3.839 ± 0.18
m1 = 4.004	1.69 ± 0.02	1.81 ± 0.02	2 ± 0.02	1041.4 ± 0.27	1037.76 ± 0.27	1034.07 ± 0.26	7.374 ± 0.21	6.059 ± 0.2	5.037 ± 0.19
m1 = 4.994	1.54 ± 0.02	1.66 ± 0.02	1.85 ± 0.02	1044.28 ± 0.29	1040.58 ± 0.28	1036.87 ± 0.28	9.03 ± 0.23	7.403 ± 0.22	6.085 ± 0.2
m1 = 6.002	1.43 ± 0.02	1.54 ± 0.02	1.73 ± 0.02	1046.66 ± 0.31	1042.92 ± 0.3	1039.15 ± 0.29	10.65 ± 0.25	8.71 ± 0.23	7.101 ± 0.22
m1 = 6.503	1.4 ± 0.02	1.51 ± 0.02	1.68 ± 0.02	1047.29 ± 0.31	1043.96 ± 0.31	1039.91 ± 0.3	11.46 ± 0.27	9.333 ± 0.24	7.618 ± 0.22
m1 = 7.006	1.33 ± 0.02	1.44 ± 0.02	1.61 ± 0.02	1048.18 ± 0.32	1044.43 ± 0.31	1040.68 ± 0.3	12.29 ± 0.28	9.946 ± 0.25	8.17 ± 0.23
m1 = 8	–	–	–	1049.41 ± 0.33	1045.66 ± 0.32	1041.87 ± 0.31	–	–	–
m1 = 8.996	–	–	–	1050.43 ± 0.34	1046.7 ± 0.33	1042.93 ± 0.32	–	–	–

Reference: the NIST ThermoML archive (doi:10.1021/je400101s)
